# Source: patent US20140378525A1, “MATERIALS AND METHODS FOR TREATING PTEN MUTATED OR DEFICIENT CANCER” (priority 2011, published 2014)
# What was measured:
# Test in all cases: Drug sensitivity of breast cancer cell line to lapatinib
# Assay type in all cases: cell-based, human
# HCC202 = conditions: HCC202, ERBB2 amplified
# Description: (§1) To complement this functional viability profiling, we also characterised the breast tumor panel using transcript microarrays, array-based comparative genomic hybridisation (aCGH), drug sensitivity for a small number of targeted agents, as well as gene mutation data.
# JIMT1 = conditions: JIMT1, ERBB2 amplified
# Description: as §1
# MDAMB453 = conditions: MDAMB453, ERBB2 amplified
# Description: as §1
# VP229 = conditions: VP229, ERBB2 amplified
# Description: as §1
# BT474 = conditions: BT474, ERBB2 amplified
# Description: as §1
# SKBR3 = conditions: SKBR3, ERBB2 amplified
# Description: as §1
structure (smiles),measurement,setting,value
CS(=O)(=O)CCNCc1ccc(-c2ccc3ncnc(Nc4ccc(OCc5cccc(F)c5)c(Cl)c4)c3c2)o1 [lapatinib],sensitivity to lapatinib treatment,HCC202,sensitive
same,sensitivity to lapatinib treatment,JIMT1,resistant
same,sensitivity to lapatinib treatment,MDAMB453,resistant
same,sensitivity to lapatinib treatment,VP229,resistant
same,sensitivity to lapatinib treatment,BT474,sensitive
same,sensitivity to lapatinib treatment,SKBR3,sensitive
